Test results taken from PubChem BioAssay AID1918937 (Molecular Pharmacology Branch, DTP, NCI, 2023).

System: 521955-158-R2-J5-PDC complex spheroid viability
Test: Anticancer human tumor 521955-158-R2-J5-PDC patient-derived pancreatic carcinoma cell line growth inhibition
Details: for IC50: curve of first compound; for viability, T/C: stronger effect = lower value
Outline: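 Multicellular complex spheroids of tumor cells with human endothelial cells (HUVEC) and mesenchymal stem cells; the LSD1 inhibitor iadademstat was combined with standard-of-care or investigational agents. Top concentration at or near clinical Cmax, half-log dilutions; final DMSO ≤0.25%.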

[1] = second compound 0.1 µM, first compound 0.0316 µM
[2] = second compound 0.1 µM, first compound 0.1 µM
[3] = second compound 0.1 µM, first compound 0.316 µM
[4] = second compound 0.1 µM, first compound 1 µM
[5] = second compound 0.1 µM, first compound 3.16 µM
[6] = second compound 0.1 µM, first compound 10 µM
[7] = second compound 0.316 µM, first compound 0.0316 µM
[8] = second compound 0.316 µM, first compound 0.1 µM
[9] = second compound 0.316 µM, first compound 0.316 µM
[10] = second compound 0.316 µM, first compound 1 µM
[11] = second compound 0.316 µM, first compound 3.16 µM
[12] = second compound 0.316 µM, first compound 10 µM
[13] = second compound 1 µM, first compound 0.0316 µM
[14] = second compound 1 µM, first compound 0.1 µM
[15] = second compound 1 µM, first compound 0.316 µM
[16] = second compound 1 µM, first compound 1 µM
[17] = second compound 1 µM, first compound 3.16 µM
[18] = second compound 1 µM, first compound 10 µM
[19] = second compound 3.16 µM, first compound 0.0316 µM
[20] = second compound 3.16 µM, first compound 0.1 µM
[21] = second compound 3.16 µM, first compound 0.316 µM
[22] = second compound 3.16 µM, first compound 1 µM
[23] = second compound 3.16 µM, first compound 3.16 µM
[24] = second compound 3.16 µM, first compound 10 µM
[25] = second compound 10 µM, first compound 0.0316 µM
[26] = second compound 10 µM, first compound 0.1 µM
[27] = second compound 10 µM, first compound 0.316 µM
[28] = second compound 10 µM, first compound 1 µM
[29] = second compound 10 µM, first compound 3.16 µM
[30] = second compound 10 µM, first compound 10 µM
[31] = second compound 0.1 µM, first compound 0.00316 µM
[32] = second compound 0.1 µM, first compound 0.01 µM
[33] = second compound 0.316 µM, first compound 0.00316 µM
[34] = second compound 0.316 µM, first compound 0.01 µM
[35] = second compound 1 µM, first compound 0.00316 µM
[36] = second compound 1 µM, first compound 0.01 µM
[37] = second compound 3.16 µM, first compound 0.00316 µM
[38] = second compound 3.16 µM, first compound 0.01 µM
[39] = second compound 10 µM, first compound 0.00316 µM
[40] = second compound 10 µM, first compound 0.01 µM
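Note: spheroids exposed to agents for seven days.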
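Throughout, for viability, T/C: percent of DMSO vehicle control luminescence viability.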

Compound | IC50 (second compound 0.1 µM) [nM] | IC50 (second compound 0.316 µM) [nM] | IC50 (second compound 1 µM) [nM] | IC50 (second compound 3.16 µM) [nM] | IC50 (second compound 10 µM) [nM] | viability, T/C [1] [%] | viability, T/C [2] [%] | viability, T/C [3] [%] | viability, T/C [4] [%] | viability, T/C [7] [%] | viability, T/C [8] [%] | viability, T/C [9] [%] | viability, T/C [10] [%] | viability, T/C [13] [%] | viability, T/C [14] [%] | viability, T/C [15] [%] | viability, T/C [19] [%] | viability, T/C [20] [%] | viability, T/C [25] [%] | viability, T/C [26] [%] | other results
CC1(C)CCC(CN2CCN(c3ccc(C(=O)NS(=O)(=O)c4ccc(NCC5CCOCC5)c([N+](=O)[O-])c4)c(Oc4cnc5[nH]ccc5c4)c3)CC2)=C(c2ccc(Cl)cc2)C1 + NC1CC1c1ccc(-c2cccc(O)c2)cc1 | 3980 | 3860 | 3900 | 4070 | 3860 | 93.2 | 86 | 95.6 | 92.8 | 81.4 | 93.3 | 91.6 | 84.6 | 82 | 92.6 | 96.4 | 87.9 | 89.4 | 98.4 | 103 | viability, T/C [5]: 62.4%; viability, T/C [6]: 0.69%; viability, T/C [11]: 60.4%; viability, T/C [12]: 1.04%; viability, T/C [16]: 86.9%; viability, T/C [17]: 61%; viability, T/C [18]: 0.96%; viability, T/C [21]: 99.4%; viability, T/C [22]: 90.2%; viability, T/C [23]: 63.7%; viability, T/C [24]: 1.07%; viability, T/C [27]: 107%; viability, T/C [28]: 86.6%; viability, T/C [29]: 61.2%; viability, T/C [30]: 0.78%
CC1COCCN1c1cc(C2(S(C)(=N)=O)CC2)nc(-c2ccnc3[nH]ccc23)n1 (stereo not given) + NC1CC1c1ccc(-c2cccc(O)c2)cc1 | 564 | 543 | 666 | 587 | 567 | 82.3 | 93.9 | 77.7 | 22.6 | 84 | 86.3 | 74.5 | 22.4 | 83 | 90.8 | 87.6 | 81 | 80.2 | 88.8 | 102 | viability, T/C [5]: 15.7%; viability, T/C [6]: 20.8%; viability, T/C [11]: 15.2%; viability, T/C [12]: 20.4%; viability, T/C [16]: 29.7%; viability, T/C [17]: 15.9%; viability, T/C [18]: 16.8%; viability, T/C [21]: 78.5%; viability, T/C [22]: 25.5%; viability, T/C [23]: 14.9%; viability, T/C [24]: 15.3%; viability, T/C [27]: 69.8%; viability, T/C [28]: 30.7%; viability, T/C [29]: 14.9%; viability, T/C [30]: 17.6%
CC[C@@]1(O)C(=O)OCc2c1cc1n(c2=O)Cc2cc3c(CN(C)C)c(O)ccc3nc2-1 + NC1CCC(NC2CC2c2ccccc2)CC1 | 4.87 | 4.89 | 4.35 | 4.78 | 4.55 | 7.11 | 5.58 | – | – | 6.01 | 4.82 | – | – | 6.84 | 5.45 | – | 6.25 | 4.49 | 6.18 | 4.49 | viability, T/C (second compound 0.1 µM, first compound 0.000316 µM): 100%; viability, T/C (second compound 0.1 µM, first compound 0.001 µM): 104%; viability, T/C [31]: 72.3%; viability, T/C [32]: 12.8%; viability, T/C (second compound 0.316 µM, first compound 0.000316 µM): 101%; viability, T/C (second compound 0.316 µM, first compound 0.001 µM): 97.2%; viability, T/C [33]: 72.9%; viability, T/C [34]: 12.2%; viability, T/C (second compound 1 µM, first compound 0.000316 µM): 97.3%; viability, T/C (second compound 1 µM, first compound 0.001 µM): 97.5%; viability, T/C [35]: 64.7%; viability, T/C [36]: 11.7%; viability, T/C (second compound 3.16 µM, first compound 0.000316 µM): 96.7%; viability, T/C (second compound 3.16 µM, first compound 0.001 µM): 94.9%; viability, T/C [37]: 70.5%; viability, T/C [38]: 13.2%; viability, T/C (second compound 10 µM, first compound 0.000316 µM): 104%; viability, T/C (second compound 10 µM, first compound 0.001 µM): 105%; viability, T/C [39]: 67%; viability, T/C [40]: 13.1%
Nc1ncn(C2CC(O)C(CO)O2)c(=O)n1 (stereo not given) + NC1CCC(NC2CC2c2ccccc2)CC1 | > 1000 | > 1000 | > 1000 | 941 | > 1000 | 93.6 | 79.7 | 69.6 | 64.2 | 85.6 | 83.4 | 63 | 55.3 | 85.3 | 74.4 | 60.5 | 93.1 | 75.4 | 92.8 | 76.5 | viability, T/C [31]: 101%; viability, T/C [32]: 108%; viability, T/C [33]: 97.4%; viability, T/C [34]: 96%; viability, T/C [35]: 99.3%; viability, T/C [36]: 90.1%; viability, T/C [16]: 56.3%; viability, T/C [37]: 96.4%; viability, T/C [38]: 95.4%; viability, T/C [21]: 59.1%; viability, T/C [22]: 49%; viability, T/C [39]: 95.3%; viability, T/C [40]: 91%; viability, T/C [27]: 62.5%; viability, T/C [28]: 51.6%
